The assay has as its system Chronic Constriction Injury model of ischiadic nerve (neuralgia). Particulars: rat, in vivo.

As to `CN1CC[C@]23c4c5ccc(O)c4O[C@H]2[C@@H](O)C=C[C@H]3[C@H]1C5` [morphine, reference compound], the “analgesic effect on neuralgia” value is reported as “no analgesic effect” and the “mechanical threshold after withdrawal” value was “no significant difference”.

Values taken from patent US9469674B2 (HAINAN UNIVERSITY, dated 2016).
